{
  "source": "patent US20160113282A1",
  "about": "(HONBU SANKEI CO., LTD., priority 2013, published 2016)",
  "key": {"HEp-2 cells [1]": {"system": "HEp-2 cells", "settings": "human, 20 min"}, "[2]": {"system": "feline calicivirus F4 strain", "test": "Inactivation of feline caliciviruses (Example 10), plaque assay on CRFK cells", "assay_type": "cell-based", "settings": "30 minutes at 25° C. (FIG. 10)"}, "MDCK cells": {"system": "MDCK cells", "test": "Impairment in colony formation capability", "assay_type": "cell-based, canine", "settings": "phosphoric acid buffer (FIG. 7)"}, "Vero cells": {"system": "Vero cells", "test": "Impairment in colony formation capability", "assay_type": "cell-based, African green monkey", "settings": "phosphoric acid buffer (FIG. 7)"}, "HEp-2 cells [3]": {"system": "HEp-2 cells", "test": "Impairment in colony formation capability", "assay_type": "cell-based, human", "settings": "phosphoric acid buffer (FIG. 7)"}, "[4]": {"system": "feline calicivirus F4 strain", "test": "In vitro test in test tube, feline caliciviruses (Example 11)", "assay_type": "cell-based"}},
  "data": [
    {"smiles": "OCl", "note": "[Sodium hypochlorite aqueous solution, sodium hypochlorite]", "values": [
      {"measurement": "concentration that generated dead cells", "setting": "HEp-2 cells [1]", "value": "about 0.5 ppm"},
      {"measurement": "effect of pH on inactivation of feline caliciviruses", "setting": "[2]; pH 4.5 and pH 7.5", "value": "greatly affected by pH"},
      {"measurement": "feline caliciviruses inactivation capability", "setting": "[2]; pH of 4.5", "value": "lost"},
      {"measurement": "concentration at which impairment in colony formation was observed", "setting": "MDCK cells", "value": "≤ 5", "unit": "ppm"},
      {"measurement": "concentration at which impairment in colony formation was observed", "setting": "Vero cells", "value": "≤ 5", "unit": "ppm"},
      {"measurement": "concentration at which impairment in colony formation was observed", "setting": "HEp-2 cells [3]", "value": "≤ 5", "unit": "ppm"},
      {"measurement": "number of infectious viruses", "setting": "[4]; pH 5.5, 25 ppm, contact 0 min", "value": "5.4 ± 1.7", "unit": "log CPU/mL"},
      {"measurement": "number of infectious viruses", "setting": "[4]; pH 5.5, 50 ppm, contact 0 min", "value": "5.4 ± 1.7", "unit": "log CPU/mL"},
      {"measurement": "number of infectious viruses", "setting": "[4]; pH 5.5, 100 ppm, contact 0 min", "value": "5.4 ± 1.7", "unit": "log CPU/mL"},
      {"measurement": "number of infectious viruses", "setting": "[4]; pH 5.5, 200 ppm, contact 0 min", "value": "5.4 ± 1.7", "unit": "log CPU/mL"},
      {"measurement": "number of infectious viruses", "setting": "[4]; pH 5.5, 200 ppm, contact 5 min", "value": "3.7 ± 1.8", "unit": "log CPU/mL"},
      {"measurement": "number of infectious viruses", "setting": "[4]; pH 5.5, 200 ppm, contact 10 min", "value": "2.6 ± 1.8", "unit": "log CPU/mL"},
      {"measurement": "number of infectious viruses", "setting": "[4]; pH 5.5, 400 ppm, contact 0 min", "value": "5.4 ± 1.7", "unit": "log CPU/mL"},
      {"measurement": "number of infectious viruses", "setting": "[4]; pH 5.5, 400 ppm, contact 1 min", "value": "<2.0", "unit": "log CPU/mL"},
      {"measurement": "number of infectious viruses", "setting": "[4]; pH 5.5, 400 ppm, contact 5 min", "value": "<2.0", "unit": "log CPU/mL"},
      {"measurement": "number of infectious viruses", "setting": "[4]; pH 5.5, 400 ppm, contact 10 min", "value": "<2.0", "unit": "log CPU/mL"},
      {"measurement": "number of infectious viruses", "setting": "[4]; pH 6.5, 25 ppm, contact 0 min", "value": "6.1 ± 2.1", "unit": "log CPU/mL"},
      {"measurement": "number of infectious viruses", "setting": "[4]; pH 6.5, 50 ppm, contact 0 min", "value": "6.1 ± 2.1", "unit": "log CPU/mL"},
      {"measurement": "number of infectious viruses", "setting": "[4]; pH 6.5, 100 ppm, contact 0 min", "value": "6.1 ± 2.1", "unit": "log CPU/mL"},
      {"measurement": "number of infectious viruses", "setting": "[4]; pH 6.5, 200 ppm, contact 0 min", "value": "6.1 ± 2.1", "unit": "log CPU/mL"},
      {"measurement": "number of infectious viruses", "setting": "[4]; pH 6.5, 200 ppm, contact 5 min", "value": "3.3 ± 2.9", "unit": "log CPU/mL"},
      {"measurement": "number of infectious viruses", "setting": "[4]; pH 6.5, 200 ppm, contact 10 min", "value": "<2.0", "unit": "log CPU/mL"},
      {"measurement": "number of infectious viruses", "setting": "[4]; pH 6.5, 400 ppm, contact 0 min", "value": "6.1 ± 2.1", "unit": "log CPU/mL"},
      {"measurement": "number of infectious viruses", "setting": "[4]; pH 6.5, 400 ppm, contact 1 min", "value": "<2.0", "unit": "log CPU/mL"},
      {"measurement": "number of infectious viruses", "setting": "[4]; pH 6.5, 400 ppm, contact 5 min", "value": "<2.0", "unit": "log CPU/mL"},
      {"measurement": "number of infectious viruses", "setting": "[4]; pH 6.5, 400 ppm, contact 10 min", "value": "<2.0", "unit": "log CPU/mL"},
      {"measurement": "number of infectious viruses", "setting": "[4]; pH 7.5, 25 ppm, contact 0 min", "value": "5.2 ± 2.6", "unit": "log CPU/mL"},
      {"measurement": "number of infectious viruses", "setting": "[4]; pH 7.5, 50 ppm, contact 0 min", "value": "5.2 ± 2.6", "unit": "log CPU/mL"},
      {"measurement": "number of infectious viruses", "setting": "[4]; pH 7.5, 50 ppm, contact 5 min", "value": "4.4 ± 1.8", "unit": "log CPU/mL"},
      {"measurement": "number of infectious viruses", "setting": "[4]; pH 7.5, 50 ppm, contact 10 min", "value": "<2.0", "unit": "log CPU/mL"},
      {"measurement": "number of infectious viruses", "setting": "[4]; pH 7.5, 100 ppm, contact 0 min", "value": "5.2 ± 2.6", "unit": "log CPU/mL"},
      {"measurement": "number of infectious viruses", "setting": "[4]; pH 7.5, 100 ppm, contact 5 min", "value": "3.4 ± 1.8", "unit": "log CPU/mL"},
      {"measurement": "number of infectious viruses", "setting": "[4]; pH 7.5, 100 ppm, contact 10 min", "value": "<2.0", "unit": "log CPU/mL"},
      {"measurement": "number of infectious viruses", "setting": "[4]; pH 7.5, 200 ppm, contact 0 min", "value": "5.2 ± 2.6", "unit": "log CPU/mL"},
      {"measurement": "number of infectious viruses", "setting": "[4]; pH 7.5, 200 ppm, contact 1 min", "value": "2.5 ± 1.8", "unit": "log CPU/mL"},
      {"measurement": "number of infectious viruses", "setting": "[4]; pH 7.5, 200 ppm, contact 5 min", "value": "<2.0", "unit": "log CPU/mL"},
      {"measurement": "number of infectious viruses", "setting": "[4]; pH 7.5, 200 ppm, contact 10 min", "value": "<2.0", "unit": "log CPU/mL"},
      {"measurement": "number of infectious viruses", "setting": "[4]; pH 7.5, 400 ppm, contact 0 min", "value": "5.2 ± 2.6", "unit": "log CPU/mL"},
      {"measurement": "number of infectious viruses", "setting": "[4]; pH 7.5, 400 ppm, contact 1 min", "value": "<2.0", "unit": "log CPU/mL"},
      {"measurement": "number of infectious viruses", "setting": "[4]; pH 7.5, 400 ppm, contact 5 min", "value": "<2.0", "unit": "log CPU/mL"},
      {"measurement": "number of infectious viruses", "setting": "[4]; pH 7.5, 400 ppm, contact 10 min", "value": "<2.0", "unit": "log CPU/mL"},
      {"measurement": "number of infectious viruses", "setting": "[4]; pH 8.5, 25 ppm, contact 0 min", "value": "4.7 ± 2.8", "unit": "log CPU/mL"},
      {"measurement": "number of infectious viruses", "setting": "[4]; pH 8.5, 50 ppm, contact 0 min", "value": "4.7 ± 2.8", "unit": "log CPU/mL"},
      {"measurement": "number of infectious viruses", "setting": "[4]; pH 8.5, 50 ppm, contact 1 min", "value": "4.6 ± 3.2", "unit": "log CPU/mL"},
      {"measurement": "number of infectious viruses", "setting": "[4]; pH 8.5, 50 ppm, contact 5 min", "value": "3.5 ± 2.1", "unit": "log CPU/mL"},
      {"measurement": "number of infectious viruses", "setting": "[4]; pH 8.5, 50 ppm, contact 10 min", "value": "<2.0", "unit": "log CPU/mL"},
      {"measurement": "number of infectious viruses", "setting": "[4]; pH 8.5, 100 ppm, contact 0 min", "value": "4.7 ± 2.8", "unit": "log CPU/mL"},
      {"measurement": "number of infectious viruses", "setting": "[4]; pH 8.5, 100 ppm, contact 1 min", "value": "3.7 ± 2.6", "unit": "log CPU/mL"},
      {"measurement": "number of infectious viruses", "setting": "[4]; pH 8.5, 100 ppm, contact 5 min", "value": "<2.0", "unit": "log CPU/mL"},
      {"measurement": "number of infectious viruses", "setting": "[4]; pH 8.5, 100 ppm, contact 10 min", "value": "<2.0", "unit": "log CPU/mL"},
      {"measurement": "number of infectious viruses", "setting": "[4]; pH 8.5, 200 ppm, contact 0 min", "value": "4.7 ± 2.8", "unit": "log CPU/mL"},
      {"measurement": "number of infectious viruses", "setting": "[4]; pH 8.5, 200 ppm, contact 1 min", "value": "2.5 ± 2.3", "unit": "log CPU/mL"},
      {"measurement": "number of infectious viruses", "setting": "[4]; pH 8.5, 200 ppm, contact 5 min", "value": "<2.0", "unit": "log CPU/mL"},
      {"measurement": "number of infectious viruses", "setting": "[4]; pH 8.5, 200 ppm, contact 10 min", "value": "<2.0", "unit": "log CPU/mL"},
      {"measurement": "number of infectious viruses", "setting": "[4]; pH 8.5, 400 ppm, contact 0 min", "value": "4.7 ± 2.8", "unit": "log CPU/mL"},
      {"measurement": "number of infectious viruses", "setting": "[4]; pH 8.5, 400 ppm, contact 1 min", "value": "<2.0", "unit": "log CPU/mL"},
      {"measurement": "number of infectious viruses", "setting": "[4]; pH 8.5, 400 ppm, contact 5 min", "value": "<2.0", "unit": "log CPU/mL"},
      {"measurement": "number of infectious viruses", "setting": "[4]; pH 8.5, 400 ppm, contact 10 min", "value": "<2.0", "unit": "log CPU/mL"},
      {"measurement": "number of infectious viruses", "setting": "[4]; pH unadjusted, 25 ppm, contact 0 min", "value": "6.4 ± 2.7", "unit": "log CPU/mL"},
      {"measurement": "number of infectious viruses", "setting": "[4]; pH unadjusted, 25 ppm, contact 10 min", "value": ">10^6 log CPU/mL"},
      {"measurement": "number of infectious viruses", "setting": "[4]; pH unadjusted, 50 ppm, contact 0 min", "value": "6.4 ± 2.7", "unit": "log CPU/mL"},
      {"measurement": "number of infectious viruses", "setting": "[4]; pH unadjusted, 50 ppm, contact 1 min", "value": "3.5 ± 2.1", "unit": "log CPU/mL"},
      {"measurement": "number of infectious viruses", "setting": "[4]; pH unadjusted, 50 ppm, contact 5 min", "value": "2.9 ± 2.7", "unit": "log CPU/mL"},
      {"measurement": "number of infectious viruses", "setting": "[4]; pH unadjusted, 50 ppm, contact 10 min", "value": "<2.0", "unit": "log CPU/mL"},
      {"measurement": "number of infectious viruses", "setting": "[4]; pH unadjusted, 100 ppm, contact 0 min", "value": "6.4 ± 2.7", "unit": "log CPU/mL"},
      {"measurement": "number of infectious viruses", "setting": "[4]; pH unadjusted, 100 ppm, contact 1 min", "value": "<2.0", "unit": "log CPU/mL"},
      {"measurement": "number of infectious viruses", "setting": "[4]; pH unadjusted, 100 ppm, contact 5 min", "value": "<2.0", "unit": "log CPU/mL"}
    ]}
  ]
}
